Source: patent publication US12338203B2 (TAISHO PHARMACEUTICAL CO., LTD., priority 2019, dated 2025)

Target: T1, human LPAR1 (Homo sapiens, UniProt Q92633)
T1 construct: expressed in transfected cells
Test: Test Example 1: antagonism against response of LPA-induced increase in intracellular Ca2+ concentration in RH7777 cells stably expressing human LPAR1
Format: cell-based
Conditions: RH7777 cells stably expressing human LPAR1; Fluo-4 fluorescence, FDSS6000; read-out: IC50 value (concentration producing 50% antagonism against response of LPA-induced increase in intracellular Ca2+ concentration) (converted)
Procedure: (1) Preparation of RH7777 cells stably expressing human LPAR1
The human LPAR1 expression vector was transfected into RH7777 cells to acquire human LPAR1 expressing cells.
(2) Test of antagonism against response of LPA-induced increase in intracellular Ca^2+ concentration
Cells stably expressing human LPAR1 were used for a test of antagonism against response of LPA-induced increase in intracellular Ca^2+ concentration.
The cells were seeded onto the Poly-D-Lysine 96 well black plate and incubated overnight. […] 50 μL of the Basal Buffer (1×HBSS, 20 mM HEPES, 2.5 mM Probenecid, 0.05% BSA, 0.25 mg/mL Amaranth, pH 7.4) containing the test compound was added thereto, followed by incubation at 37° C. for 30 minutes. In FDSS6000 (Hamamatsu Photonics K.K.), LPAs were added, and the change in intracellular Ca^2+ concentration was detected using the fluorescence value of a wavelength of 540 nm by an excitation wavelength of 480 nm as an indicator. […] The Rmax under […] without the test compound was used as the control value. The Rmax under Basal Buffer stimulation with no LPAs or test compounds was used as the basal value.
The percentage (%) of increase in intracellular Ca^2+ concentration was calculated by dividing the value obtained by subtracting the basal value from Rmax in the presence of LPAs and each concentration of the test compound by the value obtained by subtracting the basal value from the control value. The concentration of each test compound was plotted on the X axis and the percentage (%) of increase in intracellular Ca^2+ concentration was plotted on the Y axis, and the IC50 value was calculated by nonlinear regression using XLfit.

T1 sequence (Q92633 whole entry): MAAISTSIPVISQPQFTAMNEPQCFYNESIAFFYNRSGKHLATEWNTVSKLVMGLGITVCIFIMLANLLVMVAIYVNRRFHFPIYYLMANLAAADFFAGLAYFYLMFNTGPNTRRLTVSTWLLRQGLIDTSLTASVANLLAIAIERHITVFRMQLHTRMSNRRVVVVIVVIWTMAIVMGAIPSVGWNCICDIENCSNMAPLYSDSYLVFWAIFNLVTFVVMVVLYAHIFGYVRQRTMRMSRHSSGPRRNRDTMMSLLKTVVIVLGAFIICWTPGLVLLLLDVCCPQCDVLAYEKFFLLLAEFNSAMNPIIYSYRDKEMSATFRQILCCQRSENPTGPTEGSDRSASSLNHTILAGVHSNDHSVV

Row | SMILES | IC50
1 | CCOc1cc([C@@H](C)N(CCO[C@@H](C)c2ccccc2)C(=O)NC2(C(=O)O)CC2)cc(OCC)c1C(C)=O [Example 4-111] | 3.07 nM
2 | CCOc1cc(C(C)N(CCCCc2ccccc2)C(=O)NC2CCC2C(=O)O)cc(OCC)c1C(C)=O (centres unmarked) [Example 1-125] | 3.09 nM
3 | CCOc1cc([C@@H](C)N(CCCCc2ccccc2)C(=O)NC2(C(=O)O)CCCCC2)cc(OCC)c1C [Example 1-118] | 42.8 nM
4 | CCOc1cc([C@@H](C)N(CCC(F)(F)Cc2ccccc2)C(=O)NC2(C(=O)O)CC2)cc(OCC)c1C(C)=O [Example 4-79] | 34.6 nM
5 | CCOc1cc([C@@H](C)N(CCC(F)(F)Cc2ccccc2)C(=O)NC2(C(=O)O)CC(F)(F)C2)cc(OCC)c1C1CC1 [Example 4-87] | 2.53 nM
6 | CCOc1cc([C@@H](C)N(CCCC(F)(F)c2ccccc2)C(=O)NC2(C(=O)O)CC2)cc(OCC)c1C(C)O (some centres unmarked) [Example 4-47] | 10.5 nM
7 | CCOc1c(C(C)=O)ccc([C@@H](C)N(CCCC(F)(F)c2ccccc2)C(=O)N[C@]2(C(=O)O)C[C@H](OC)C2)c1C [Example 4-68] | 8.85 nM
8 | CCOc1cc([C@@H](C)N(CCCCc2ccccc2)C(=O)NC2(C(=O)O)CC(OC)C2)cc(OCC)c1C1(O)CC1 (some centres unmarked) [Example 1-90] | 9.18 nM
9 | CCOc1cc(C(C)N(CCCCc2ccccc2)C(=O)NC2CCC(C(=O)O)CC2)cc(OCC)c1C (centres unmarked) [Example 1-143] | 200 nM
10 | CCCCN(C(=O)NC1(C(=O)O)CC(F)(F)C1)[C@H](C)c1cc(OCC)c(C)c(OCC)c1 [Example 4-1, 1-({Butyl[(1R)-1-(3,5-Diethoxy-4-Methylphenyl)Ethyl]Carbamoyl}Amino)-3,3-Difluorocyclobutane-1-Carboxylic Acid] | 2500 nM
11 | CCOc1cc([C@@H](C)N(CCCCc2ccccc2)C(=O)NC2(C(=O)O)CC(OCC)C2)cc(OCC)c1C (some centres unmarked) [Example 1-100] | 3.13 nM
12 | CCOc1cc([C@@H](C)N(CCOCc2ccccc2)C(=O)NC2(C(=O)O)CC(OCC)C2)cc(OCC)c1C(C)=O (some centres unmarked) [Example 4-109] | 1.59 nM
13 | CCOc1cc([C@@H](C)N(CCO[C@@H](C)c2ccccc2)C(=O)NC2(C(=O)O)CCOCC2)cc(OCC)c1C(C)=O [Example 4-142] | 5.9 nM
14 | CCOc1c(C(C)=O)ccc([C@@H](C)N(CCO[C@H](C)c2ccccc2)C(=O)NC2(C(=O)O)CC(OC)C2)c1C (some centres unmarked) [Example 4-154] | 3.68 nM
15 | CCOc1cc(C(CO)N(CCCCc2ccccc2)C(=O)NC2(C(=O)O)CC(F)(F)C2)cc(OCC)c1C(C)=O (centres unmarked) [Example 3-4, 1-({[1-(4-Acetyl-3,5-Diethoxyphenyl)-2-Hydroxyethyl](4-Phenylbutyl) Carbamoyl}Amino)-3,3-Difluorocyclobutane-1-Carboxylic Acid] | 4.03 nM
16 | CCOc1cc([C@@H](C)N(CCC(F)(F)Cc2ccccc2)C(=O)NC2(C(=O)O)CCOCC2)cc(OCC)c1C(C)=O [Example 4-95] | 37.4 nM
17 | CCOc1cc([C@@H](C)N(CCC(F)(F)Cc2ccccc2)C(=O)N[C@]2(C(=O)O)C[C@@H](OC)C2)cc(OCC)c1C(C)=O [Example 4-89] | 7.59 nM
18 | CCOc1cc([C@@H](C)N(CCO[C@@H](C)c2ccccc2)C(=O)N[C@H]2C[C@@](C)(C(=O)O)C2)cc(OCC)c1C(C)=O [Example 4-120] | 15.2 nM
19 | CCOc1c(C(C)=O)ccc([C@@H](C)N(CCO[C@@H](C)c2ccccc2)C(=O)N[C@]2(C(=O)O)C[C@H](OCC)C2)c1C [Example 4-141] | 7.62 nM
20 | CCOc1cc([C@@H](C)N(CCC2Cc3ccccc3C2)C(=O)NC2(C(=O)O)CC(OC)C2)cc(OCC)c1C(C)=O (some centres unmarked) [Example 4-22] | 7.62 nM
21 | CCOc1cc(C(C)N(CCCCCc2ccccc2)C(=O)NC2(C(=O)O)CC(F)(F)C2)cc(OCC)c1C (centres unmarked) [Example 4-37] | 30.6 nM
22 | CCOc1c(C(C)=O)ccc([C@@H](C)N(CCCC(F)(F)c2ccccc2)C(=O)NC2(C(C)=O)CC(OCC)C2)c1C (some centres unmarked) [Example 4-71] | 8.06 nM
23 | CCOc1cc([C@@H](C)N(CCc2ccc(Cl)cc2)C(=O)NC2(C(=O)O)CC(F)(F)C2)cc(OCC)c1C [Example 4-11] | 126 nM
24 | CCOc1cc(C(C)N(CCCCc2ccccc2)C(=O)NC(CCc2ccccc2)C(=O)O)cc(OCC)c1C (centres unmarked) [Example 1-9] | 129 nM
25 | CCOc1cc(C(C)N(CCCCc2ccccc2)C(=O)NC2(C(=O)O)CC(F)(F)C2)cc(OCC)c1C(=O)NC (centres unmarked) [Example 1-61] | 103 nM
26 | CCOc1cc(C(C)N(CCCCc2ccccc2)C(=O)NC2CC(CC(=O)O)C2)cc(OCC)c1C (centres unmarked) [Example 1-148] | 25.5 nM
27 | CCOc1c(C(C)=O)ccc([C@@H](C)N(CCCCc2ccccc2)C(=O)NC2(C(=O)O)CC(OC)C2)c1C (some centres unmarked) [Example 1-94] | 11.8 nM
28 | CCOc1cc([C@@H](C)N(CCCCc2ccccc2)C(=O)NC2(C(=O)O)CCCC2)cc(OCC)c1C [Example 1-113] | 4.09 nM
29 | CCOc1cc([C@@H](C)N(CCCCc2ccccc2)C(=O)NC2(C(=O)O)CC(N3CCN(C)CC3)C2)cc(OCC)c1C (some centres unmarked) [Example 1-109] | 312 nM
30 | CCOc1cc([C@@H](C)N(CCO[C@@H](C)c2ccccc2)C(=O)NC2(C(=O)O)CC(OC)C2)cc(OCC)c1C(C)O (some centres unmarked) [Example 4-123] | 7.82 nM

Other lines, results leading:

Row | IC50 | SMILES
31 | 19.1 nM | COCc1cc(OC)cc(C(C)N(CCCCc2ccccc2)C(=O)NC2(C(=O)O)CC(F)(F)C2)c1 (centres unmarked) [Example 5-14]
32 | 1.95 nM | CCOc1cc([C@@H](C)N(CCCCc2ccccc2)C(=O)NC2(C(=O)O)CC(F)(F)C2)c(Cl)c(OCC)c1C(C)O (single isomer, unassigned) [Example 5-52]
33 | 4.74 nM | CCOc1cc([C@@H](C)N(CCO[C@@H](C)c2ccccc2)C(=O)NC2(C(=O)O)CC2)c(C)c(OCC)c1C [Example 5-75]
34 | 1.51 nM | CCNc1cc([C@@H](C)N(CCCCc2ccccc2)C(=O)NC2(C(=O)O)CC(F)(F)C2)cc(OCC)c1C(C)=O [Example 5-108]
35 | 9.05 nM | CCOc1cc([C@@H](C)N(CCO[C@@H](C)c2ccccc2)C(=O)N[C@]2(C(=O)O)C[C@H](OC)C2)c(Cl)c(OCC)c1C(C)O (single isomer, unassigned) [Example 5-60]
36 | 1.71 nM | CCNc1cc(C(C)N(CCCCc2ccccc2)C(=O)NC2(C(=O)O)CCC2)cc(OCC)c1C(C)=O (centres unmarked) [Example 5-103]
37 | 9.55 nM | CCOc1cc(C(C)N(CCCCc2ccccc2)C(=O)NC2(C(=O)NS(C)(=O)=O)CC(F)(F)C2)cc(OCC)c1C(C)O (centres unmarked) [Example 7-2]
38 | 2.77 nM | COc1cc(C(C)N(CCOCc2ccccc2)C(=O)NC2(C(=O)O)CCOCC2)c(C)c(OC)c1C1CC1 (centres unmarked) [Example 5-177]
39 | 1.75 nM | CCOc1cc([C@@H](C)N(CCO[C@@H](C)c2ccccc2)C(=O)N[C@]2(C(=O)O)C[C@@H](OCC)C2)c(C)c(OCC)c1C [Example 5-82, trans-1-[([(1R)-1-(3,5-diethoxy-2,4-dimethylphenyl)ethyl]{2-[(1S)-1-phenylethoxy]ethyl}carbamoyl)amino]-3-ethoxycyclobutane-1-carboxylic acid]
40 | 0.817 nM | CCOc1cc(C(C)N(CCOCc2ccccc2)C(=O)NC2(C(=O)O)CCC2)c(Cl)c(OCC)c1C1CC1 (centres unmarked) [Example 5-190]
41 | 0.695 nM | CCOc1cc(C(C)N(CCOCc2ccccc2)C(=O)NC2(C(=O)O)CC(OCC)C2)c(Cl)c(OCC)c1C1CC1 (centres unmarked) [Example 5-221]
42 | 3.58 nM | CCNc1cc(C(C)N(CCCCc2ccccc2)C(=O)NC2(C(=O)O)CCC2)cc(OCC)c1C#N (centres unmarked) [Example 5-113]
43 | 0.712 nM | CCOc1cc(C(C)N(CCOCc2ccccc2)C(=O)NC2(C(=O)O)CC(OC)C2)c(C)c(OCC)c1C1CC1 (centres unmarked) [Example 5-201]
44 | 3530 nM | CCOc1cc(C(C)N(CCO[C@@H](C)c2ccccc2)C(=O)NC2(C(=O)OC(C)(C)C)CC(OCC)C2)cc(OCC)c1C(C)=O (some centres unmarked) [Example 6-14]
45 | 34.7 nM | COc1cc(C(C)N(CCOCc2ccccc2)C(=O)NC2(C(=O)O)CCOCC2)cc(OC)c1C1CC1 (centres unmarked) [Example 5-173]
46 | 4.16 nM | CCOc1cc(C(C)N(CCOC(C)c2ccccc2)C(=O)NC2(C(=O)O)CC2)c(Cl)c(OCC)c1C(C)=O (centres unmarked) [Example 5-187]
47 | 11 nM | CCCOc1cc(OCCC)cc(C(C)N(CCCCc2ccccc2)C(=O)NC2(C(=O)O)CC(F)(F)C2)c1 (centres unmarked) [Example 5-18]
48 | 3.82 nM | CCOc1cc([C@@H](C)N(CCO[C@@H](C)c2ccccc2)C(=O)NC2(C(=O)O)CC(OC)C2)c(Cl)c(OCC)c1C(C)O (single isomer, unassigned) [Example 5-58]
49 | 2.56 nM | CCOc1cc([C@@H](C)N(CCCCc2ccccc2)C(=O)NC2(C(=O)O)CCOCC2)c(Cl)c(OCC)c1C(C)=O [Example 5-51]
50 | 3.21 nM | COc1cc(C(C)N(CCOC(C)c2ccccc2)C(=O)NC2(C(=O)O)CCC2)c(Cl)c(OC)c1C1CC1 (centres unmarked) [Example 5-138]
51 | 5.26 nM | CCOC1CC(NC(=O)N(CCOC(C)c2ccccc2)C(C)c2cc(OC)c(C3CC3)c(OC)c2)(C(=O)O)C1 (centres unmarked) [Example 5-167]
52 | 3.51 nM | COc1cc(C(C)N(CCO[C@@H](C)c2ccccc2)C(=O)NC2(C(=O)O)CCOCC2)c(C)c(OC)c1C1CC1 (some centres unmarked) [Example 5-181]
53 | 1.01 nM | CCOc1cc(C(C)N(CCOCc2ccccc2)C(=O)NC2(C(=O)O)CC(OCC)C2)c(C)c(OCC)c1C1CC1 (centres unmarked) [Example 5-215]
